In publication PMC3363220, “Specific PKG inhibitors: do they really exist?” (BMC Pharmacology, 2011):
Where a SMILES comes first, the peptide text is derived from it. [ ]: non-standard residue; d: D form.

Tests used:
PKG II = test: inhibition of PKG II; format: biochemical; details: up to 1 µM (D)-DT2
Description: (§1) We tested the inhibitory effects of (D)-DT2 and DT3 on PKG and its effects on intact cells. […] It should be noted that the measured PKG concentration is about 7 µM in platelets and 0.1 – 0.5 µM in all other tested cells.

PKA [1] = test: inhibition of PKA; format: biochemical; details: up to 1 µM (D)-DT2
PKG = PKG activity in broken platelet cell experiments; format: biochemical; details: broken platelet cells, measured PKG concentration about 7 µM in platelets
Description: as §1

PKA [2] = test: PKA activity in broken platelet cell experiments; format: biochemical; details: broken platelet cells; at these concentrations (starting at 5 µM, complete PKG inhibition at 20 µM)
Description: as §1

platelets [3] = test: thrombin-induced platelet aggregation; format: cell-based; details: preincubation of platelets with 10 nM (D)-DT2
Description: as §1

platelets [4] = test: thrombin-induced calcium mobilization in platelets; format: cell-based; details: preincubation of platelets with 10 nM (D)-DT2
Description: as §1

platelets [5] = test: aggregation of collagen-stimulated platelets; format: cell-based; details: preincubation of platelets with 10 nM (D)-DT2
Description: as §1

platelets [6] = test: calcium mobilization in collagen-stimulated platelets; format: cell-based; details: preincubation of platelets with 10 nM (D)-DT2
Description: as §1

platelets [7] = test: platelet function versus PKG activity; format: cell-based
Description: as §1

PKG in intact cells = details: ref [1]; cited from earlier work
Excerpt: Cellular cGMP effects can be mediated by a number of effectors including cGMP-dependent protein kinases (PKGs), cGMP-stimulated phosphodiesterase (PDE2), cGMP-inhibited phosphodiesterase (PDE3), and cGMP-gated channels. Pharmacological inhibitors of PKG are often used to discriminate between these diverse cGMP effects. Currently used PKG inhibitors can be divided into three classes: cyclic nucleotide binding site inhibitors like Rp-phosphorothioate analogs, ATP binding site inhibitors like KT5823, and substrate binding site inhibitors like the recently described DT-oligopeptides. However, seve ...

SMILES | inhibition of PKG II (PKG II) | inhibition of PKA (PKA [1]) | concentration giving complete inhibition of PKG activity (PKG; complete inhibition) [µM] | concentration at which PKG inhibition starts (PKG) [µM] | inhibition of PKA activity (PKA [2]) | effect on thrombin-induced platelet aggregation (platelets [3]) | effect on thrombin-induced calcium mobilization (platelets [4]) | effect on aggregation in collagen-stimulated platelets (platelets [5]) | effect on calcium mobilization in collagen-stimulated platelets (platelets [6]) | correlation of effects on platelet function with PKG activity (platelets [7]) | PKG inhibition in intact cells (PKG in intact cells)
CC(C)C[C@@H](NC(=O)[C@H]1CCCN1C(=O)[C@H]1CCCN1C(=O)[C@@H](CCCNC(=N)N)NC(=O)[C@@H](CCCNC(=N)N)NC(=O)[C@@H](CCCNC(=N)N)NC(=O)[C@@H](CCC(N)=O)NC(=O)[C@@H](CCCNC(=N)N)NC(=O)[C@@H](CCCNC(=N)N)NC(=O)[C@@H](CCCCN)NC(=O)[C@@H](CCCCN)NC(=O)[C@@H](CCCNC(=N)N)NC(=O)CNC(=O)[C@H](N)Cc1ccc(O)cc1)C(=O)N[C@H](CCCNC(=N)N)C(=O)N[C@H](CCCCN)C(=O)N[C@H](CCCCN)C(=O)N[C@H](CCCCN)C(=O)N[C@H](CCCCN)C(=O)N[C@H](CCCCN)C(=O)N[C@H](Cc1c[nH]cn1)C(N)=O [(D)-DT2] (H-[dY]G[dR][dK][dK][dR][dR][dQ][dR][dR][dR][dP][dP][dL][dR][dK][dK][dK][dK][dK][dH]-NH2; N-terminus and C-terminus assumed) | did not inhibit | did not inhibit | 20 | 5 | observed inhibition of PKA activity | strongly inhibited | strongly inhibited | potentiated | potentiated | did not correlate with PKG activity | 
COC(=O)[C@@]1(OC)C[C@H]2O[C@]1(C)n1c3ccccc3c3c4c(c5c6ccccc6n2c5c31)C(=O)N(C)C4 [KT5823] |  |  |  |  |  |  |  |  |  |  | no PKG inhibition
